The record followed here is ChEMBL document CHEMBL1201862, “PubChem BioAssay data set” (2004).

Test systems include DU-145; HL-60; M14; T47D; SF-539; SK-MEL-28; EKVX; OVCAR-8; ACHN; OVCAR-5; A498; TK-10; OVCAR-3; NCI-H460; SNB-19; SR; HCC 2998; UACC-62; SK-MEL-2.
What all share (test): NCI-60 cell line screen, 48 h

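The compound was tested at five concentrations on cells cultured in 96-well plates, with a 48-hour exposure period. The concentration for 50% growth inhibition is given as GI50.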 The source made the active and inactive calls. Rule as the data show it: active = GI50 up to about 1.1 µM and inactive = higher.

`CC[C@](O)(CC(=O)O[C@H]1C(=O)O[C@@H]2C[C@H]3C(C)=CC(=O)[C@@H](O)[C@]3(C)[C@H]3[C@@]4(O)OC[C@]32[C@@H]1[C@@H](C)[C@H]4O)C(C)C`: the GI50 with DU-145, in the test with HL-60, in the test with M14, with T47D, in the test on SF-539 and in the test with SK-MEL-28 was < 0.01 µM (active) each time. Also, the GI50 in the test with EKVX, with OVCAR-8, in the test with ACHN, with OVCAR-5, with A498 and in the test on TK-10 was < 0.01 µM (active) in each case. In addition, the GI50 with OVCAR-3, in the test on NCI-H460, in the test on SNB-19, in the test with SR, in the test with HCC 2998 and in the test with UACC-62 was < 0.01 µM (active) in each case. For the same compound, in the test on SK-MEL-2, the GI50 is < 0.01 µM (active).
As to `CC(C)=CCC[C@@H](C)C1=C(Nc2ccccc2Cl)C(=O)C(C)=C(O)C1=O`, the GI50 is 6.64 µM (inactive) in the test on DU-145; 0.612 µM (active) with HL-60; 6.15 µM (inactive) with M14; 5.62 µM (inactive) with T47D; 3.79 µM (inactive) with SF-539; 11 µM (inactive) in the test with SK-MEL-28. Besides, the GI50 is 3.12 µM (inactive) in the test with EKVX; 2.81 µM (inactive) with OVCAR-8; 2.26 µM (inactive) with ACHN; 14.6 µM (inactive) in the test on OVCAR-5; 5.42 µM (inactive) in the test on A498; 4.88 µM (inactive) with TK-10. Moreover, the GI50 with OVCAR-3 is 3.36 µM (inactive); in the test on NCI-H460, 2.43 µM (inactive); in the test with SNB-19, 4.49 µM (inactive); in the test with SR, 1.2 µM (inactive); in the test with HCC 2998, 6.18 µM (inactive); with UACC-62, 3.67 µM (inactive). Moreover, the GI50 in the test on SK-MEL-2 was 3.66 µM (inactive).
On to `COC(=O)C1=NN2c3ccccc3CN([C@@H](C)c3ccccc3)C(=O)[C@@H]2C1`, for which the GI50 in the test with DU-145 was 30.8 µM (inactive); in the test with HL-60 it was 23.9 µM (inactive); in the test with M14 it was 16.5 µM (inactive); in the test on T47D, 14.1 µM (inactive); with SF-539, 50.7 µM (inactive); with SK-MEL-28 it was 38.7 µM (inactive). Moreover, the GI50 is 24.6 µM (inactive) with EKVX; 34.6 µM (inactive) with OVCAR-8; 34 µM (inactive) with ACHN; 52.1 µM (inactive) with OVCAR-5; 91.8 µM (inactive) in the test on A498; 50.7 µM (inactive) in the test with TK-10. In addition, the GI50 is 30.8 µM (inactive) with OVCAR-3; 58.3 µM (inactive) in the test on NCI-H460; 39.6 µM (inactive) in the test with SNB-19; 22 µM (inactive) with SR; 48.2 µM (inactive) in the test on HCC 2998; 19 µM (inactive) in the test with UACC-62. Moreover, the GI50 with SK-MEL-2 is 28.7 µM (inactive).
Regarding `Oc1cccc(-c2nc3cc(F)ccc3s2)c1`, the GI50 is 18.7 µM (inactive) in the test on DU-145; 23.2 µM (inactive) in the test with HL-60; 18.1 µM (inactive) in the test with M14; 0.225 µM (active) in the test with T47D; 19.4 µM (inactive) in the test on SF-539; 19.2 µM (inactive) in the test on SK-MEL-28. Also, the GI50 is 3.84 µM (inactive) in the test on EKVX; 20.6 µM (inactive) in the test on OVCAR-8; 23.8 µM (inactive) in the test on ACHN; 21.4 µM (inactive) in the test with OVCAR-5; 1.11 µM (active) in the test on A498; 12.4 µM (inactive) in the test with TK-10. The GI50 with OVCAR-3 is 11.5 µM (inactive); in the test with NCI-H460, 18.6 µM (inactive); in the test on SNB-19, 24.4 µM (inactive); in the test with SR it was 18 µM (inactive); with HCC 2998, 9.02 µM (inactive); in the test on UACC-62, 14.5 µM (inactive). In addition, the GI50 in the test on SK-MEL-2 was 19.8 µM (inactive).
Consider `Oc1c(C2=N[C@H]3CCCC[C@@H]3N2)ccc2ccccc12`, for which the GI50 was > 100 µM (inactive) in the test with DU-145; > 100 µM (inactive) with HL-60; > 100 µM (inactive) in the test on M14; > 100 µM (inactive) in the test on T47D; > 59.6 µM (inactive) with SF-539; > 100 µM (inactive) in the test with SK-MEL-28. Besides, the GI50 in the test with EKVX is > 68.2 µM (inactive); in the test with OVCAR-8 it was > 100 µM (inactive); in the test on ACHN it was > 100 µM (inactive); with OVCAR-5 it was > 100 µM (inactive); with A498 it was > 100 µM (inactive); with TK-10, > 100 µM (inactive). Besides, the GI50 in the test on OVCAR-3 was > 100 µM (inactive); with NCI-H460, > 100 µM (inactive); in the test with SNB-19 it was > 40.8 µM (inactive); with SR, > 100 µM (inactive); in the test on HCC 2998, > 100 µM (inactive); in the test with UACC-62 it was > 100 µM (inactive). In addition, the GI50 with SK-MEL-2 is > 100 µM (inactive).
In the case of `O=C(c1cccs1)N(Cc1cccnc1)C(=S)N(Cc1cccnc1)C(=O)c1cccs1`, the GI50 with DU-145 was > 100 µM (inactive); in the test on HL-60 it was > 100 µM (inactive); in the test on M14, 91.2 µM (inactive); in the test on T47D, > 100 µM (inactive); with SF-539, 29.9 µM (inactive); in the test on SK-MEL-28 it was > 100 µM (inactive). Moreover, the GI50 with EKVX is 44.1 µM (inactive); in the test with OVCAR-8, 50.4 µM (inactive); in the test with ACHN, > 100 µM (inactive); in the test on OVCAR-5, > 100 µM (inactive); in the test with A498 it was 32.3 µM (inactive); with TK-10, 34 µM (inactive). Besides, the GI50 with OVCAR-3 is 53.7 µM (inactive); in the test with NCI-H460 it was > 100 µM (inactive); with SNB-19, 35.5 µM (inactive); in the test on SR, 7.82 µM (inactive); in the test on HCC 2998, > 100 µM (inactive); with UACC-62 it was 60.7 µM (inactive). The GI50 in the test on SK-MEL-2 is 26.2 µM (inactive).
Regarding `CCOC(=O)Cn1c(=O)c2nc(SC)sc2n(-c2ccc(C)cc2)c1=S`, the GI50 in the test with DU-145 was 98.4 µM (inactive); with HL-60, > 100 µM (inactive); with M14, > 61.7 µM (inactive); in the test with T47D it was > 87.1 µM (inactive); in the test with SF-539, 36.1 µM (inactive); with SK-MEL-28, > 100 µM (inactive). In addition, the GI50 was 74.3 µM (inactive) in the test with EKVX; 36.6 µM (inactive) with OVCAR-8; 48.1 µM (inactive) with ACHN; > 100 µM (inactive) in the test on OVCAR-5; 46.8 µM (inactive) in the test on A498; 36.7 µM (inactive) in the test with TK-10. Further, the GI50 is 50.4 µM (inactive) with OVCAR-3; 48 µM (inactive) in the test on NCI-H460; 20.4 µM (inactive) in the test with SNB-19; > 100 µM (inactive) in the test with SR; > 56.9 µM (inactive) in the test with HCC 2998; 43.8 µM (inactive) in the test with UACC-62. In addition, the GI50 with SK-MEL-2 was 23.7 µM (inactive).
Regarding `Cc1nc2c(C)ccc([N+](=O)[O-])c2c(NCCCN(C)C)c1C`, the GI50 in the test on DU-145 is > 100 µM (inactive); in the test with HL-60, 24.9 µM (inactive); in the test on M14 it was 19.5 µM (inactive); with T47D, > 100 µM (inactive); with SF-539, > 76.9 µM (inactive); in the test on SK-MEL-28, 27.1 µM (inactive). The GI50 in the test on EKVX was > 59.7 µM (inactive); in the test on OVCAR-8, > 46.6 µM (inactive); in the test on ACHN it was > 100 µM (inactive); with OVCAR-5, > 72.1 µM (inactive); in the test with A498 it was > 22.3 µM (inactive); with TK-10, > 41.6 µM (inactive). Also, the GI50 is 47.9 µM (inactive) in the test with OVCAR-3; 57 µM (inactive) in the test on NCI-H460; > 100 µM (inactive) in the test on SNB-19; 38.3 µM (inactive) in the test on SR; 27.4 µM (inactive) in the test with HCC 2998; 37.2 µM (inactive) in the test with UACC-62. In the test with SK-MEL-2, the GI50 is > 44.6 µM (inactive).
As for `CC1(C)CC(O)C2=C(O1)C(=O)c1ncccc1C2=O` (stereo not given), the GI50 is 5.07 µM (inactive) in the test with DU-145; 1.7 µM (inactive) in the test with HL-60; 1.96 µM (inactive) in the test on M14; 2.26 µM (inactive) in the test on T47D; 1.84 µM (inactive) in the test with SF-539; 1.69 µM (inactive) with SK-MEL-28. Also, the GI50 is 2.54 µM (inactive) in the test with EKVX; 2.6 µM (inactive) in the test on OVCAR-8; 2.93 µM (inactive) in the test with ACHN; 1.89 µM (inactive) with OVCAR-5; 5.3 µM (inactive) with A498; 6.46 µM (inactive) in the test on TK-10. Besides, the GI50 in the test on OVCAR-3 was 2.35 µM (inactive); with NCI-H460, 2.52 µM (inactive); with SNB-19, 4.65 µM (inactive); in the test with SR, 2.34 µM (inactive); with HCC 2998, 5.41 µM (inactive); in the test on UACC-62, 1.72 µM (inactive). In addition, the GI50 with SK-MEL-2 was 2.58 µM (inactive).
Take `CC(=O)NC1C(OCc2ccccc2)OC(CO)C(O)C1OC(C)C(=O)NC(C)C(=O)NC(CCC(=O)NCCCNc1c2ccccc2nc2cccc([N+](=O)[O-])c12)C(N)=O` (stereo not given): the GI50 is 1.56 µM (inactive) with DU-145; 1.26 µM (inactive) in the test on HL-60; 1.97 µM (inactive) in the test with M14; 16.8 µM (inactive) in the test with T47D; 3.86 µM (inactive) in the test with SF-539; 2.58 µM (inactive) with SK-MEL-28. For the same compound, the GI50 in the test with EKVX is 3.57 µM (inactive); with OVCAR-8 it was 1.05 µM (active); in the test with ACHN, 0.792 µM (active); in the test with OVCAR-5, 2.24 µM (inactive); with A498, 2.01 µM (inactive); with TK-10, 2.94 µM (inactive). Moreover, the GI50 was 2.34 µM (inactive) in the test with OVCAR-3; 0.258 µM (active) in the test on NCI-H460; 3.67 µM (inactive) in the test on SNB-19; 5.48 µM (inactive) in the test on SR; 1.14 µM (inactive) with HCC 2998; 1.25 µM (inactive) in the test with UACC-62. Moreover, in the test on SK-MEL-2, the GI50 was 1.32 µM (inactive).
